The record followed here is patent EP1935887A1, “Heterocyclic substituted carbonyl derivatives and their use as dopamine D3 receptor ligands” (Aventis Pharmaceuticals Inc., priority 2001, dated 2002).

The test has as its target T1, CLONED HUMAN ALPHA-1A ADRENERGIC RECEPTORS (α1a) (Homo sapiens, UniProt P35348).
T1 construct: expressed in transfected cells; host or cells: CHO cells, G418-resistant clone #7, vector pcDNA3; membranes
T1 sequence (P35348 1-466): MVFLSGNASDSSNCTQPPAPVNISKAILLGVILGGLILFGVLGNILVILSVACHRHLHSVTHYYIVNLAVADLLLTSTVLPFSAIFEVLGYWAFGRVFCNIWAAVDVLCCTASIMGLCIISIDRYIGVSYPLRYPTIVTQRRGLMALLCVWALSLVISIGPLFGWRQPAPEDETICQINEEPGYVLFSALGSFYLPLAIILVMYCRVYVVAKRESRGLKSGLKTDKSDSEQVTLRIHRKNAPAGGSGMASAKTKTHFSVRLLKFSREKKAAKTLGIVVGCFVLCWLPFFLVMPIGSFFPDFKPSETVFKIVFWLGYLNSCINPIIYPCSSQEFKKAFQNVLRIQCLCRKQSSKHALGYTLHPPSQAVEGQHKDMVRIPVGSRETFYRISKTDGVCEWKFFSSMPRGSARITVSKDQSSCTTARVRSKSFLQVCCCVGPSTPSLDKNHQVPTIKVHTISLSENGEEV
In words: [3H]Prazosin binding to cloned human alpha-1A adrenergic receptors expressed in CHO cells. An excerpt: ^3H]PRAZOSIN BINDING TO CLONED HUMAN ALPHA-1A ADRENERGIC RECEPTORS (α1a) EXPRESSED IN CHINESE HAMSTER OVARY CELLS (CHO)
• purpose: This in vitro assay is designed as a screen to identify compounds displaying a affinity for the human α1a adrenoceptor subtype expressed in the membrane fragments of CHO cells. The assay measures the ability of the test compounds to displace [^3H] prazosin from α1a sites. The identification of multiple vascular α1-addrenoceptors (α1a, α1b, α1d) in vitro has provided impetus to define the role(s) of these subtypes in cardiovascular regulation in vivo (Vargas and Gorman, 1995). […] Therefore, the binding of compounds to α1a adrenergic receptors is believed to be a good measure of a compound's potential to cause orthostatic hypotension and sedation as side effects. Prazosin is a potent antagonist of the human α1a-adrenoceptor subtype, which has been cloned and is expressed in the membrane fragments of CHO cells. • hα1areceptor: The cloning of the human α1a cDNA was accomplished first by screening a human prostate cDNA library (Clontech), from which a portion of the coding region was obtained. This DNA fragment was then used to screen a human leukocyte genomic library (Clontech), and the rest of the coding sequence was obtained. Later these two fragments were spliced together. The entire coding sequence was then fully sequenced including matching PCR sequence with original genomic coding sequence, thus ensuring splice sites were joined correctly (Schwinn et al., 1995). Once sequenced, the gene was subcloned into the expression vector pcDNA3 (Invitrogen). Plasmid DNA was then used for transfection into CHO cells and G418 resistant clones were isolated. A clone expressing high levels of the hα1a receptor (as determined by mRNA and receptor binding data) was chosen and pharmacologically characterized. • Culture Media: Media Ingredients for Adherent α1a expressing CHO Culture: • A. HAM's F-12 (Cellgro) • B. 10% 0.2 micron filtered Fetal Bovine Serum (FBS)(Cellgro) • C. 1% 0.2 micron filtered Penicillin-Streptomycin (Cellgro) • D. G418 0.2 micron filtered (Geneticin 400µg/ml)(Cellgro) Cells are cultured using established methods and procedures in either 150x25mm culture plates (scale up to 100 plates) or a combination of these plates and 70 roller bottles. One culturing/harvest cycle typically requires 2 weeks and yields between 100-400mg protein. Plates or bottles are incubated at 37°C + 5% CO2. • Storage: Cells are harvested by mechanical scraping, washed using PBS, collected in 250ml Corning polypropylene centrifuge tubes, spun down (1500RPM) and resuspended in dH2O 10% DMSO (final volume per harvest is approximately 50ml). Protein determination is made using the Biorad DC Assay Kit. […] Bd. = 50µl 10µM phentolamine+50 µl [^3H]prazosin+100µl membrane Test Cpd. = 50µl compound + 50µl [^3H]prazosin + 100µl membrane Compounds to be evaluated are weighed out to yield a 10 mM stock solution in DMSO in a 24 well polystyrene plate. This is diluted to a 0.5 mM stock in dH2O. Serial dilutions in Buffer A are made from which 50 µl additions to the plate are made in duplicate in order to achieve the final concentrations desired. Typically, one 96 well plate is used to evaluate 11 compounds at 4 concentrations (10^-6-10^-9 M) in duplicate. Total binding and nonspecific binding are determined in quadruplicate. Usually one standard is run with each assay. [^3H]Prazosin is made up in Buffer A such that when 50 µl are added per well the final concentration is 1.0 nM in a final assay volume of 200 µl. The final concentration should be verified by running a sample in a scintillation counter prior to adding the [^3H]prazosin to the 96 well plate. Note: The radioactivity should be prepared just before the additions are made so that it is not allowed to sit on the bench for very long. […]

Take `C[C@H]1CC[C@H](NC(=O)CCCN2CCN(c3csc4cc(C(F)(F)F)ccc34)CC2)CC1` [compound 826804]: for the setting “@ 1 uM”, the “halpha1 % I h=human” value turned out to be 32.8% Inh @ 1 uM.

Regarding `CCOC(=O)[C@H]1CC[C@H](NC(=O)CCCN2CCN(c3csc4cc(C(F)(F)F)ccc34)CC2)CC1` [compound 826805], the “halpha1 % I h=human” value (@ 1 uM) turned out to be 27.8% Inh @ 1 uM.

For `CC[C@H]1CC[C@H](NC(=O)CCCN2CCN(c3csc4cc(C(F)(F)F)ccc34)CC2)CC1` [compound 826806], the “halpha1 % I h=human” value (@ 1 uM) was 10.3% Inh @ 1 uM.

Consider `CCN(C(=O)CCCN1CCN(c2csc3cc(C(F)(F)F)ccc23)CC1)C1CCCCC1` [compound 826809], for which the “halpha1 % I h=human” value (@ 1 uM) is listed as 30.5% Inh @ 1 uM.

With `CC1(C)CCCN(C(=O)CCCN2CCN(c3csc4cc(C(F)(F)F)ccc34)CC2)C1` [compound 826817], the “halpha1 % I h=human” value (@ 1 uM) came out at 44.4% Inh @ 1 uM.

For `O=C(CCCN1CCN(c2csc3cc(C(F)(F)F)ccc23)CC1)NC1CCCCC1` [compound 826821], the “halpha1 % I h=human” value (@ 0.1 nM) worked out at 24% Inh @ 0.1 nM.

For `CC1CCCN(C(=O)CCCN2CCN(c3csc4cc(F)ccc34)CC2)C1` (stereo not shown) [compound 826855], the Ki (human alpha-1 receptor, read-out: halpha1Ki (nM) h=human) stood at 0.689 nM.
